Reference: patent US9326518B2, “Synergistic combination of a chlorotoluron compound and OIT for dry film protection” (Dow Global Technologies LLC, priority 2013, dated 2016)

What was measured:
Chlorella sp. ATCC 7516 = experiment: Algal efficacy testing of dry paint films (modified ASTM 5589, 6-well plates); type: cell-based; settings: 3 weeks; for % inhibition: at the Total conc, versus blank sample; for Total conc (concentration chosen as minimum inhibitory concentration, pass level ≧75% inhibition): total active ingredient in acrylic/silicone paint, dry film on filter paper
Protocol: (§1) Slurries containing 33% antimicrobial active ingredient (chlorotoluron) were post added to a white, acrylic/silicone based outdoor paint free of biocides to give a total active ingredient concentration of 10000 and 1000 ppm respectively. KATHON™ 893T (100% OIT) was post added to a white, acrylic/silicone based outdoor paint free of biocides to give a total active ingredient concentration of 10000 and 1000 ppm respectively. These paints were then diluted with an antimicrobial free acrylic/silicone based paint and mixed to prepare targeted concentrations of antimicrobial compounds for the testing. The total biocides concentrations tested were 125, 250, 500, 1000, 2000 and 5000 ppm. After biocides addition or dilution, the paints were mixed 90 seconds with the horse power shaker (AXEL 75M3372/Agitateur SO-10MI) until uniformity was achieved. Paints containing different antimicrobial compounds at the same levels were mixed together in order to obtain the desired ratio of antimicrobial compounds. After one day, the paints were applied to Schleicher & Schuell filter paper at 280 μm wet film thickness and dried for 3 days at room temperature avoiding direct exposure to sunlight. Square discs (1.6 cm×1.6 cm) were cut out from each panel and were used as the substrate for algal efficacy tests. This sample size allowed for an agar border when the sample disc was placed into the well of the test plate.
(§2) Algal efficacy was tested according to modified ASTM 5589 which is a standard accelerated test method for determining resistance of various coatings (including paints) to algal defacement. To accommodate for high-throughput screening, this method was scaled down from petri dishes to 6-well plates. Bold Modified Basal Freshwater Nutrient Solution was used as growth medium. A single coated filter paper coupon was placed with a pair of sterile forceps at the center of the agar plug (on top) with the painted surface facing upwards. Algal inoculums were prepared by mixing equal concentrations (1×10^6 cfu/ml) and equal volumes of exponentially growing algae cultures.
(§3) Each well that contains a tested coupon was inoculated with 1750 μl of algal suspensions (1×10^6 cfu/ml) making sure that the whole surface (paint film as well as the agar surrounding it) was evenly covered. The plates were incubated at room temp (21° C.-25° C.) with cyclic exposure to light and dark phases, for a period of three weeks. The total area inhibited was evaluated at the end of each week according to percent area covered in 5% increments
(§4) At the end of the three week incubation period, the samples were scored for percent inhibition regarding color intensity compared to the blank sample.
(§5) The Synergy Index calculation was performed as follows.
(§6) The SI is calculated based on F. C. Kull et.
(§7) SI value of <1 in the formula indicates a synergism of the blended biocides exists.
(§8) The minimal targeted inhibition was set at 75%, meaning a coupon with at least 75% algal growth inhibition was considered as a pass.

[1] = system: Stichococcus bacillaris SAG 379-1a / CCAP 379/1a; experiment: as above; type: cell-based; settings: 3 weeks; for % inhibition: at the Total conc, versus blank sample; for Total conc (concentration chosen as minimum inhibitory concentration, pass level ≧75% inhibition): total active ingredient in acrylic/silicone paint, dry film on filter paper
Protocol: as §1, §2, §3, §4, §5, §6, §7, §8

Row | SMILES | % inhibition (Chlorella sp. ATCC 7516) [%] | Total conc (concentration chosen as minimum inhibitory concentration, pass level ≧75% inhibition) (Chlorella sp. ATCC 7516) [ppm] | % inhibition [1] [%] | Total conc (concentration chosen as minimum inhibitory concentration, pass level ≧75% inhibition) [1] [ppm]
1 | CCCCCCCCn1sccc1=O [OIT, 2-n-octyl-4-isothiazolin-3-one] | 50 | 2000 | 60 | 2000
2 | Cc1ccc(NC(=O)N(C)C)cc1Cl [Chlorotoluron, N′-(3-chloro-4-methylphenyl)-N,N-dimethylurea] | 100 | 1000 | 90 | 500
